Laboratory results taken from ChEMBL document CHEMBL3507680, “University of Dundee, Gates Library screen for HepG2 cell viability”.

test: Human HepG2 cell viability assay in 384 well format; assay type: toxicity, cell-based; set-up: dose 125 nL, time 70.5 hour; concentration not given beside the values; conditions: HepG2 cells, read-out: Inhibition

SMILES | cytotoxicity at 70.5 h [%]
Cc1ccc(CN2C[C@H]3C[C@H](C(=O)NCc4cccnc4)[C@@H](C2)O3)o1 | -8.69
Cc1cccc(S(=O)(=O)N2C[C@H]3C[C@H](C(=O)NCC(C)C)[C@@H](C2)O3)c1 | 25.7
CCN(CC)c1ccc2ccc(C(=O)O)cn12 | -5.88
Cc1cc(CN2C[C@@H]3COC[C@]3(c3nnc(C)o3)C2)no1 | 16.2
Cc1cnc(N2C[C@@H]3[C@@H](C2)OCC(=O)N3CC2CC2)nc1 | 14.2
O=C(C1CCCO1)N1CCC2(CC1)CNCCO2 (stereo unspecified) | 9.56
CC(C)NC(=O)c1ccc2c(c1)C(c1nc[nH]n1)CN2C (stereo unspecified) | -8.61
Cc1cnc(NC2CCc3c(ccc(=O)n3C)C2)nc1 (stereo unspecified) | -4.77
COc1ccc(CN2CCO[C@H]3CN(C(=O)C4CC4)CC[C@H]3C2=O)cc1 | -12
CC(C)N1CCN(C)CC1c1nnc2ccc(C(=O)N3CCCC3)cn12 (stereo unspecified) | -11.5
CC(=O)N1CCC2(CC1)CN(C(=O)c1cccc3[nH]ccc13)C2 | -11.6
CC(C)NC(=O)c1ccc2c(c1)C(c1nc[nH]n1)CN2S(C)(=O)=O (stereo unspecified) | -14.8
O=C1[C@@H]2CCN(C3CCC3)C[C@@H]2OCCN1Cc1ccncc1 | 20.5
O=C(NC1CCC1)C1CCC2(CN(C(=O)c3ccco3)C2)O1 (stereo unspecified) | -13.3
CN(C)C(=O)NCc1nnc2n1CCN(Cc1cccs1)C2 | -2.91
CCOC1CC2(CCN(C(=O)COC)CC2)c2cc(C)ccc21 (stereo unspecified) | -9.53
N#CCC(=O)NCc1nnc2n1CCN(Cc1ccsc1)C2 | 9.84
CC(=O)N1Cc2nccn2CC(CNC(=O)c2ccnnc2)C1 (stereo unspecified) | 9.01
CN(C)S(=O)(=O)N1C[C@H]2CCC[C@@]2(COCC2CCOCC2)C1 | 9.65
CCN1CC2(CC1=O)CN(C(=O)c1ccoc1)CCN(C(=O)N(C)C)C2 (stereo unspecified) | 3.23
CCN1CC2(CC1=O)CN(C(=O)c1ccsc1)CCN(C(=O)N(C)C)C2 (stereo unspecified) | 3.77
c1ccc(COC[C@H]2CC[C@H]3[C@H](CCN3Cc3ccco3)O2)nc1 | -6.26
CN1Cc2c(C(=O)NCC3CCCO3)ncn2-c2ccccc2S1(=O)=O (stereo unspecified) | -0.787
CCS(=O)(=O)N1CC[C@H]2[C@H]1CC(=O)N2Cc1csc(C)n1 | -1.34
COc1nn(C)c2c1CCCN(C(=O)c1ccsc1)C2 | -108
COCCC(=O)N1CCC2(CCCN2Cc2ccccc2)C1 (stereo unspecified) | -52.9

SMILES | cytotoxicity at 70.5 h [%]
COCCO[C@H]1CCN(C(=O)NC2CC2)[C@H]1Cc1cnn(C)c1 | -123
CCC1=N[C@@]2(CC[C@@H]3CN(C(=O)Nc4ccccc4)C[C@@H]32)C(=O)N1CC | -85.5
CCN1C(=O)[C@]2(CC[C@@H]3CN(C(=O)Nc4ccc(F)cc4)C[C@@H]32)N=C1C | -77.4
CC1=N[C@@]2(CC[C@@H]3CN(C(=O)Nc4ccc(F)cc4)C[C@@H]32)C(=O)N1C | -101
CN1CCN(C(=O)c2cc(-c3cnc(N4CCCC4)nc3)cn2C)CC1 | -21.9
Cn1cc(-c2cnc(N3CCOCC3)nc2)cc1C(=O)N1CCCC1 | -27.5
c1cncc(CN2CCc3c(CNc4nccs4)n[nH]c3C2)c1 | -25
C[C@@H]1C[C@@H]2CCN(C(=O)c3ccncn3)C[C@H]2O1 | -7.65
COc1cc2cc(C(=O)NCCC(=O)O)n(C)c2c(OC)c1OC | -4.76
Cn1nc(C(=O)NCc2ccc(Cl)cc2)c2c1CCS(=O)(=O)C2 | 2.61
CC(=O)N1CCC2(CC1)CN(C)C(=O)C[C@H]2C(F)(F)F | -7.04
O=C(N[C@@H]1CN[C@H]2CCCO[C@H]21)c1cnccn1 | -0.404
c1csc(N2[C@H](Cn3cncn3)C[C@@H]3CNCC[C@@H]32)n1 | 10.2
c1c(CN2CCCCC2)nc2n1CCNC2 | 8.55
COCCN1CCO[C@H]2CN(C(=O)c3cccs3)C[C@H]21 | -7.52
O=C(CC1CC1)NC[C@]12COC[C@H]1CN(c1ncc(F)cn1)C2 | -2.2
COc1ccc(CN2CCO[C@H]3CN(C4CCCC4)CC[C@H]3C2=O)cc1 | -1.08
COc1ccc(CN2CCO[C@H]3CN(C4CCC4)CC[C@H]3C2=O)cc1 | -0.486
CC(C)CN1CC[C@@H]2[C@H](CC1)N(C(=O)c1ccccc1)CCS2(=O)=O | -1.5
COCC(=O)NC[C@]12COC[C@H]1CN(c1ncc(F)cn1)C2 | -7.55
O=C(CC1CC1)NC[C@]12COC[C@H]1CN(c1ncccn1)C2 | -8
Fc1cnc(N2CCn3c(CN4CCCC4)nnc3C2)nc1 | -9.62
CC(=O)N1CCC2(CC1)CC(N1CCOCC1)c1ccc(C)cc12 (stereo unspecified) | -8.04
Cc1cnc(N2CCn3c(CN4CCOCC4)nnc3C2)nc1 | 21.1
Cn1cnc(S(=O)(=O)N2C[C@H](OCC3CC3)[C@H]3OCCC[C@H]32)c1 | 16.2
